Laboratory results: patent US20120095067A1, “PHARMACEUTICAL COMPOSITION CONTAINING CARBOXYLOSARTAN AND A PRODUCTION METHOD THEREFOR” (JIN YANG PHARM. CO., LTD., priority 2009, published 2012)

Assays:
[1] = Dissolution experiment, paddle method, 900 ml medium, 50 rpm; assay type: physicochemical
Protocol: By using the prepared Comparative example 1, dissolution experiments was made in a buffer having a pH of 1.2 (prepared by mixing 2.0 g of sodium chloride with 7.0 ml of hydrochloric acid and adding purified water until it totals 1 liter), a buffer having a pH of 4.0 (prepared by mixing 0.05 mol/L acetic acid solution with 0.05 mol/L sodium acetate solution (41:9) and adjusting a pH to 4.0), a buffer having a pH of 6.8 (prepared by mixing 250 ml of 0.2 mol/L potassium dihydrogen phosphate test solution with 118 ml of 0.2 mol/L sodium hydroxide test solution and adding water until it totals 1 liter), and purified water. In this instance, a paddle method was used, an amount of a dissolution medium was 900 ml, and a paddle rotation rate was 50 rpm. Like Comparative example 1, the dissolution of Examples 1-4 in a buffer having a pH of 1.2 was evaluated. Like Example 1, the dissolution of Examples 5-10 in a buffer having a pH of 1.2 was evaluated. Like Comparative example 1, the dissolution of Example 9 in different dissolution media was evaluated.

[2] = relative to losartan; cited from earlier work

behaviour on contact with purified water or a buffer [1]: gelled
SMILES: CCCCc1nc(Cl)c(C(=O)O)n1Cc1ccc(-c2ccccc2-c2nnn[nH]2)cc1 [losartan carboxylic acid, 2-butyl-4-chloro-1-[(2′-(1H-tetrazol-5-yl)[1,1′-biphenyl]-4-yl)methyl]-1H-imidazole-5-carboxylic acid]
half life compared with losartan [2]: longer
